Test results from the supplement of paper PMC11061612.

Key:
[1] = system: HCC-44 (Lung Adenocarcinoma); experiment: Bliss excess, mean over the matrix (fraction); higher = more synergy
Outline: (§1)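 Cell lines grown in DMEM/F12 or RPMI with 10% FBS were plated in 1536-well plates and held 24 hours at 37°C, 5% CO2 before 72 hours of exposure to two-drug dose matrices, with DMSO typically at 0.2%. CellTiter-Glo 2.0 luminescence gave viability, which was converted to inhibition. Vehicle wells were set to 0 and blank wells to 1. Combination Emax is the second-highest inhibition in the matrix, and Bliss excess is the observed combination effect minus the expected EA + EB − EA·EB, where EA and EB are the single-agent effects.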

[2] = system: OV-90 (Ovarian Carcinoma); experiment: as above
Outline: as §1

[3] = system: SK-MM-2 (Plasma Cell Myeloma); experiment: as above
Outline: as §1

[4] = system: RMG-I (Ovarian Carcinoma); experiment: as above
Outline: as §1

[5] = system: KYSE-70 (Esophageal Squamous Cell Carcinoma); experiment: as above
Outline: as §1

[6] = system: NCI-H1755 (Lung Adenocarcinoma); experiment: as above
Outline: as §1

[7] = system: PC-14 (Lung Adenocarcinoma); experiment: as above
Outline: as §1

[8] = system: SW684 (Other Solid Carcinomas); experiment: as above
Outline: as §1

[9] = system: CML-T1 (Chronic Myelogenous Leukemia); experiment: as above
Outline: as §1

[10] = system: EB-3 (Burkitt's Lymphoma); experiment: as above
Outline: as §1

[11] = system: Becker (Low Grade Glioma); experiment: as above
Outline: as §1

[12] = system: COLO-684 (Endometrial Carcinoma); experiment: as above
Outline: as §1

KYM-1 (Rhabdomyosarcoma) [13] = experiment: as above
Outline: as §1

[14] = system: LOUCY (T-Lymphoblastic Leukemia); experiment: as above
Outline: as §1

[15] = system: PANC-02-03 (Pancreatic Carcinoma); experiment: as above
Outline: as §1

[16] = system: FLO-1 (Esophageal Adenocarcinoma); experiment: as above
Outline: as §1

[17] = system: NKM-1 (Acute Myeloid Leukemia); experiment: as above
Outline: as §1

[18] = system: NCI-H810 (Non-Small Cell Lung Carcinoma); experiment: as above
Outline: as §1

[19] = system: LAMA-84 (Chronic Myelogenous Leukemia); experiment: as above
Outline: as §1

CHL-1 (Melanoma) [20] = experiment: as above
Outline: as §1

[21] = system: HCC-44 (Lung Adenocarcinoma); experiment: combination Emax (second highest fraction inhibited in the dose matrix, 72 h); higher = more inhibition; extreme values may be limits of the assay
Outline: as §1

[22] = system: OV-90 (Ovarian Carcinoma); experiment: as above
Outline: as §1

[23] = system: SK-MM-2 (Plasma Cell Myeloma); experiment: as above
Outline: as §1

[24] = system: RMG-I (Ovarian Carcinoma); experiment: as above
Outline: as §1

[25] = system: KYSE-70 (Esophageal Squamous Cell Carcinoma); experiment: as above
Outline: as §1

[26] = system: NCI-H1755 (Lung Adenocarcinoma); experiment: as above
Outline: as §1

[27] = system: PC-14 (Lung Adenocarcinoma); experiment: as above
Outline: as §1

[28] = system: SW684 (Other Solid Carcinomas); experiment: as above
Outline: as §1

[29] = system: CML-T1 (Chronic Myelogenous Leukemia); experiment: as above
Outline: as §1

[30] = system: EB-3 (Burkitt's Lymphoma); experiment: as above
Outline: as §1

[31] = system: Becker (Low Grade Glioma); experiment: as above
Outline: as §1

[32] = system: COLO-684 (Endometrial Carcinoma); experiment: as above
Outline: as §1

KYM-1 (Rhabdomyosarcoma) [33] = experiment: as above
Outline: as §1

[34] = system: LOUCY (T-Lymphoblastic Leukemia); experiment: as above
Outline: as §1

[35] = system: PANC-02-03 (Pancreatic Carcinoma); experiment: as above
Outline: as §1

[36] = system: FLO-1 (Esophageal Adenocarcinoma); experiment: as above
Outline: as §1

[37] = system: NKM-1 (Acute Myeloid Leukemia); experiment: as above
Outline: as §1

[38] = system: NCI-H810 (Non-Small Cell Lung Carcinoma); experiment: as above
Outline: as §1

[39] = system: LAMA-84 (Chronic Myelogenous Leukemia); experiment: as above
Outline: as §1

CHL-1 (Melanoma) [40] = experiment: as above
Outline: as §1
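Wherever Bliss excess, mean over the matrix is given: after 72 h of two-drug dosing.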

Structure (SMILES)	Bliss excess [1]	Bliss excess [2]	Bliss excess [3]	Bliss excess [4]	Bliss excess [5]	Bliss excess [6]	Bliss excess [7]	Bliss excess [8]	Bliss excess [9]	Bliss excess [10]	Bliss excess [11]	Bliss excess [12]	Bliss excess (KYM-1 (Rhabdomyosarcoma) [13])	Bliss excess [14]	Bliss excess [15]	Bliss excess [16]	Bliss excess [17]	Bliss excess [18]	Bliss excess [19]	Bliss excess (CHL-1 (Melanoma) [20])	combination Emax [21]	combination Emax [22]	combination Emax [23]	combination Emax [24]	combination Emax [25]	combination Emax [26]	combination Emax [27]	combination Emax [28]	combination Emax [29]	combination Emax [30]	combination Emax [31]	combination Emax [32]	combination Emax (KYM-1 (Rhabdomyosarcoma) [33])	combination Emax [34]	combination Emax [35]	combination Emax [36]	combination Emax [37]	combination Emax [38]	combination Emax [39]	combination Emax (CHL-1 (Melanoma) [40])
C[C@@H](Oc1cc(-c2cnn(C3CCNCC3)c2)cnc1N)c1c(Cl)ccc(F)c1Cl [Crizotinib] + CC1=C(C(=CC=C1)Cl)NC(=O)C2=CN=C(S2)NC3=CC(=NC(=N3)C)N4CCN(CC4)CCO [Dasatinib] (first compound max 10 µM, 7x7, partner max 2 µM)	0.101	0.0304	-0.0416	0.0034	-0.0068	0.0591	0.0183	0.0215	-0.0958	-0.0181	0.1	-0.049	-0.0389	-0.0383	-0.0328	0.0436	-0.0197	-0.0726	0.0136	-0.0401	0.962	0.591	0.303	0.737	0.423	0.983	1	0.758	0.987	0.639	0.648	0.41	0.917	0.674	0.606	1	0.971	0.244	1	0.349
C[C@@H]1COCCN1c1cc(C2([S@](C)(=N)=O)CC2)nc(-c2ccnc3[nH]ccc23)n1 [AZD6738] + Nc1ccn([C@@H]2O[C@H](CO)[C@@H](O)C2(F)F)c(=O)n1 [Gemcitabine] (first compound max 10 µM, 7x7, partner max 0.3 µM)	0.0963	-0.0129	0.114	-0.0514	-0.0006	0.0444	0.0058	0.0693	0.0987	0.007	0.0762	-0.0731	0.0132	0.0579	-0.0067	0.124	-0.0345	0.0805	0.0674	0.0858	0.844	0.573	0.572	0.48	0.504	0.812	0.869	0.559	1	0.847	0.808	0.733	1	1	0.579	0.949	1	0.794	0.976	0.902
O=C(c1cc(Cc2n[nH]c(=O)c3ccccc23)ccc1F)N1CCN(C(=O)C2CC2)CC1 [Olaparib] + COc1nnc2ccc(N3CCC(c4ccc(OCCN5CCN(C)C(=O)[C@H]5C)cc4)CC3)nn12 [AZD5153] (first compound max 10 µM, 7x7, partner max 1 µM)	-0.0341	-0.0144	-0.032	-0.0288	-0.0305	-0.0453	-0.0284	-0.0857	-0.0113	-0.0549	-0.0004	-0.0132	-0.0479	0.0304	-0.0683	-0.0174	-0.0231	-0.0406	-0.0335	-0.0554	0.593	0.402	0.875	0.536	0.389	0.498	0.431	0.415	0.852	0.694	0.397	0.564	0.862	0.749	0.591	0.575	0.898	0.671	0.8	0.418
C=CCn1c(=O)c2cnc(Nc3ccc(N4CCN(C)CC4)cc3)nc2n1-c1cccc(C(C)(C)O)n1 [AZD1775] + CCc1c2c(nc3ccc(O)cc13)-c1cc3c(c(=O)n1C2)COC(=O)[C@]3(O)CC [SN-38] (first compound max 1 µM, partner max 0.3 µM)	0.0458	-0.101	0.0271	-0.0848	-0.0358	0.0139	-0.0001	0.0144	-0.002	-0.0467	-0.0094	-0.0122	-0.0535	0.0229	0.0042	0.0261	0.0008	-0.0454	-0.0202	0.0518	0.935	0.537	0.794	0.524	0.599	0.827	0.929	0.493	1	0.884	0.903	0.906	0.958	0.995	0.706	0.897	0.997	0.634	0.993	0.833
Cc1nc(-c2cn3c(n2)-c2ccc(-c4cnn(C(C)(C)C(N)=O)c4)cc2OCC3)n(C(C)C)n1 [Taselisib] + O=C(Nc1ccc2[nH]nc(-c3ccncc3)c2c1)[C@@H]1CCN(CC(=O)N2CCN(c3ccc(-c4ncccn4)cc3)CC2)C1 [SCH772984] (first compound max 10 µM, 7x7, partner max 5 µM)	0.0906	0.0451	0.0166	-0.0455	0.0674	0.0655	0.133	0.0283	0.0342	0.0114	0.0868	-0.0183	0.0003	0.0209	0.126	0.115	0.0911	-0.0601	0.11	0.0652	0.983	0.827	0.349	0.599	0.686	0.991	0.973	0.823	0.493	0.493	0.757	0.63	0.671	0.627	0.906	0.737	1	0.104	0.999	0.575
C[C@@H](Nc1cc(F)cc(F)c1)c1cc(C(=O)N(C)C)cc2c(=O)cc(N3CCOCC3)oc12 [AZD8186] + C1CN(CCC1(C(=O)N[C@@H](CCO)C2=CC=C(C=C2)Cl)N)C3=NC=NC4=C3C=CN4 [AZD5363] (first compound max 10 µM, 7x7, partner max 10 µM)	-0.0319	-0.0556	-0.0255	-0.0317	-0.0493	-0.0436	0.0006	-0.0408	-0.0629	-0.0203	0.0295	-0.0839	-0.0245	0.0819	-0.0364	-0.0114	-0.0454	-0.099	-0.0192	-0.0392	0.609	0.208	0.202	0.401	0.233	0.642	0.399	0.572	0.53	0.324	0.646	0.615	0.4	0.494	0.237	0.43	0.615	0.17	0.198	0.433
C[C@@H](Oc1cc(-c2cnn(C3CCNCC3)c2)cnc1N)c1c(Cl)ccc(F)c1Cl [Crizotinib] + Cn1cnc2c(F)c(Nc3ccc(Br)cc3Cl)c(C(=O)NOCCO)cc21 [Selumetinib] (first compound max 10 µM, 7x7, partner max 10 µM)	-0.0103	0.0569	-0.0442	0.0091	-0.0364	-0.006	-0.0183	-0.0262	-0.0165	-0.0834	0.0409	-0.0629	-0.0202	-0.0249	-0.0458	0.031	-0.0543	-0.123	0.0176	-0.0464	0.916	0.742	0.377	0.59	0.255	0.983	0.89	0.39	0.957	0.625	0.661	0.452	0.92	0.724	0.713	0.878	0.906	0.212	1	0.0893
